Reference: ChEMBL document CHEMBL5729418, “Compounds and methods useful in the treatment of a PRMT5-mediated disorder” (2022)

Biological target: PRMT5/MEP50 complex (Homo sapiens, UniProt O14744)
Assay: Chemiluminescent Assay: A PRMT5 chemiluminescent assay was used to measure the IC50 activity of PRMT5 of the compounds of Examples 1A to 7 above. Biotinylated histone peptides were synthesized and attached to 384-well plates. Compound serial dilutions were performed and added to the assay plate. Histone H4 monomethyl R3 antibody was obtained from Abcam. A master mix for each well was prepared and human PRMT5/MEP50 (expressed in HEK293 cells) diluted in assay buffer to a concentration of 5 ng/μL. The reaction was incubated and slowly rotated for 60 minutes at the point of PRMT5/MEP50 addition. The supernatant from the wells was removed and blocking buffer was added to each well and rotated for 10 minutes. The primary antibody was diluted and added to every well for 60 minutes, before it was removed and the wells washed. The horse raddish peroxidase (HRP)-coupled secondary antibody was diluted and added to each well with an incubation time of 30 minutes. The HRP chemiluminescent substrate was added to every well. The plate was read on a Flourstar Omega BMG Labtech instrument (Ortenberg, Germany) and the analysis of IC50 was performed using the Flourstar Omega BMG Labtech software.
Type: cell-based

Chain of PRMT5/MEP50 complex (O14744 whole entry): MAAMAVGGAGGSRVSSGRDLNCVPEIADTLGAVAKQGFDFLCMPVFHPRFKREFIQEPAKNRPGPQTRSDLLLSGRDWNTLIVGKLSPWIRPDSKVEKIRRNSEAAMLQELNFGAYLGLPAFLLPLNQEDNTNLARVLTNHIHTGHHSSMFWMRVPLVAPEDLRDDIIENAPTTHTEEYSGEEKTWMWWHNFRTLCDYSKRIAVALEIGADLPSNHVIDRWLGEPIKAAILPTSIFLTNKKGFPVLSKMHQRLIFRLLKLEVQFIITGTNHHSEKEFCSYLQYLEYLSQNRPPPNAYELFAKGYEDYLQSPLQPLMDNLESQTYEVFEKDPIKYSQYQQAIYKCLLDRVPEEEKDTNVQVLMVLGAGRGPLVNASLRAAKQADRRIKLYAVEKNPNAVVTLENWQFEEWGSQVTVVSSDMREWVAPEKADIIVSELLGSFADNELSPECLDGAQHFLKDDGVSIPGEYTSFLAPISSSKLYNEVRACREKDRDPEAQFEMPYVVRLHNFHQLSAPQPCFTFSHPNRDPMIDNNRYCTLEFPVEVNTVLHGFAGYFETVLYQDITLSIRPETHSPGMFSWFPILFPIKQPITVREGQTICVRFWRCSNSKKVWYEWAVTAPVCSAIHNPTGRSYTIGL
Chain of PRMT5/MEP50 complex (Q9BQA1 whole entry, further chain): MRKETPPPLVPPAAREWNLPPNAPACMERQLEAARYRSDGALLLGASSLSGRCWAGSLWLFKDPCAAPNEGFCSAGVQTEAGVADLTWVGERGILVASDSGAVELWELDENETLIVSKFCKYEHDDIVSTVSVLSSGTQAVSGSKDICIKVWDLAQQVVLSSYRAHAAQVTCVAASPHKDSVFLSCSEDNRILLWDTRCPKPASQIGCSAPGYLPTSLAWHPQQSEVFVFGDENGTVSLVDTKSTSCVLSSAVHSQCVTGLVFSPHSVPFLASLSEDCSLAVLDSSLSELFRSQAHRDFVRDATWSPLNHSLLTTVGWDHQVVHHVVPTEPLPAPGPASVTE

**Q.** `O=C(OCC(O)CN1CCc2ccccc2C1)N1CCCC(c2ccccc2)C1` (stereo unspecified) was tested. Which IC50 did it give?
**A.** 75 nM
